Tested on: NCI-H929 complex spheroids, viability % test/control
Test: Anticancer human tumor NCI-H929 cell line growth inhibition [RAS];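 also: compound exposure lasted seven days before viability was read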;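 as to viability, T/C: 100% = DMSO vehicle control viability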
Conditions: for IC50: curve of first compound; for viability, T/C: stronger effect = lower value
How it was run: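 Tumour cells grown as complex spheroids with HUVEC endothelial cells and mesenchymal stem cells, treated with RAS pathway inhibitor combinations. Each agent spans half-log steps from near clinical Cmax, or 10 microM where Cmax is unknown.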

[1] = second compound 0.0316 µM, first compound 0.0316 µM
[2] = second compound 0.0316 µM, first compound 0.1 µM
[3] = second compound 0.0316 µM, first compound 0.316 µM
[4] = second compound 0.0316 µM, first compound 1 µM
[5] = second compound 0.1 µM, first compound 0.0316 µM
[6] = second compound 0.1 µM, first compound 0.1 µM
[7] = second compound 0.1 µM, first compound 0.316 µM
[8] = second compound 0.1 µM, first compound 1 µM
[9] = second compound 0.316 µM, first compound 0.0316 µM
[10] = second compound 0.316 µM, first compound 0.1 µM
[11] = second compound 0.316 µM, first compound 0.316 µM
[12] = second compound 0.316 µM, first compound 1 µM
[13] = second compound 1 µM, first compound 0.0316 µM
[14] = second compound 1 µM, first compound 0.1 µM
[15] = second compound 1 µM, first compound 0.316 µM
[16] = second compound 1 µM, first compound 1 µM

CC(=O)OC12COC1CC(O)C1(C)C(=O)C(O)C3=C(C)C(OC(=O)C(O)C(NC(=O)OC(C)(C)C)c4ccccc4)CC(O)(C(OC(=O)c4ccccc4)C21)C3(C)C (stereo unspecified) + CCn1c(-c2cccnc2C(C)OC)c2c3cc(ccc31)N1CCOC(CC(NC(=O)C(C(C)C)N(C)C(=O)C3(F)CCN(C(=O)C#CC(C)(C)N(C)C)CC3)C(=O)N3CCCC(N3)C(=O)OCC(C)(C)C2)C1
IC50 (second compound 0.000949 µM): < 31.6 nM | IC50 (second compound 0.003 µM): < 31.6 nM | IC50 (second compound 0.00949 µM): < 31.6 nM | IC50 (second compound 0.03 µM): < 31.6 nM | IC50 (second compound 0.0949 µM): < 31.6 nM | IC50 (second compound 0.3 µM): < 31.6 nM | viability, T/C (second compound 0.000949 µM, first compound 0.0316 µM): 0.74% | viability, T/C (second compound 0.000949 µM, first compound 0.1 µM): 0.57% | viability, T/C (second compound 0.000949 µM, first compound 0.316 µM): 0.52% | viability, T/C (second compound 0.000949 µM, first compound 1 µM): 0.54% | viability, T/C (second compound 0.000949 µM, first compound 3.16 µM): 0.6% | viability, T/C (second compound 0.000949 µM, first compound 10 µM): 0.65% | viability, T/C (second compound 0.003 µM, first compound 0.0316 µM): 0.76% | viability, T/C (second compound 0.003 µM, first compound 0.1 µM): 0.89% | viability, T/C (second compound 0.003 µM, first compound 0.316 µM): 0.7% | viability, T/C (second compound 0.003 µM, first compound 1 µM): 0.54% | viability, T/C (second compound 0.003 µM, first compound 3.16 µM): 0.6% | viability, T/C (second compound 0.003 µM, first compound 10 µM): 0.71% | viability, T/C (second compound 0.00949 µM, first compound 0.0316 µM): 0.76% | viability, T/C (second compound 0.00949 µM, first compound 0.1 µM): 0.82% | viability, T/C (second compound 0.00949 µM, first compound 0.316 µM): 0.62% | viability, T/C (second compound 0.00949 µM, first compound 1 µM): 0.64% | viability, T/C (second compound 0.00949 µM, first compound 3.16 µM): 0.66% | viability, T/C (second compound 0.00949 µM, first compound 10 µM): 0.68% | viability, T/C (second compound 0.03 µM, first compound 0.0316 µM): 0.73% | viability, T/C (second compound 0.03 µM, first compound 0.1 µM): 0.53% | viability, T/C (second compound 0.03 µM, first compound 0.316 µM): 0.75% | viability, T/C (second compound 0.03 µM, first compound 1 µM): 0.63% | viability, T/C (second compound 0.03 µM, first compound 3.16 µM): 0.5% | viability, T/C (second compound 0.03 µM, first compound 10 µM): 0.52% | viability, T/C (second compound 0.0949 µM, first compound 0.0316 µM): 0.63% | viability, T/C (second compound 0.0949 µM, first compound 0.1 µM): 0.57% | viability, T/C (second compound 0.0949 µM, first compound 0.316 µM): 0.51% | viability, T/C (second compound 0.0949 µM, first compound 1 µM): 0.63% | viability, T/C (second compound 0.0949 µM, first compound 3.16 µM): 0.58% | viability, T/C (second compound 0.0949 µM, first compound 10 µM): 0.72% | viability, T/C (second compound 0.3 µM, first compound 0.0316 µM): 0.63% | viability, T/C (second compound 0.3 µM, first compound 0.1 µM): 0.68% | viability, T/C (second compound 0.3 µM, first compound 0.316 µM): 0.63% | viability, T/C (second compound 0.3 µM, first compound 1 µM): 0.6% | viability, T/C (second compound 0.3 µM, first compound 3.16 µM): 0.65% | viability, T/C (second compound 0.3 µM, first compound 10 µM): 0.71%

CC(=O)OC12COC1CC(O)C1(C)C(=O)C(O)C3=C(C)C(OC(=O)C(O)C(NC(=O)OC(C)(C)C)c4ccccc4)CC(O)(C(OC(=O)c4ccccc4)C21)C3(C)C (stereo unspecified) + C=CC(=O)N1CCN(c2nc(OCC3CCCN3C)nc3c(F)c(-c4nc(N)cc(C)c4C(F)(F)F)c(Cl)cc23)C(C)C1
IC50 (second compound 0.00316 µM): < 31.6 nM | IC50 (second compound 0.01 µM): < 31.6 nM | IC50 (second compound 0.0316 µM): < 31.6 nM | IC50 (second compound 0.1 µM): < 31.6 nM | IC50 (second compound 0.316 µM): < 31.6 nM | IC50 (second compound 1 µM): < 31.6 nM | viability, T/C (second compound 0.00316 µM, first compound 0.0316 µM): 0.81% | viability, T/C (second compound 0.00316 µM, first compound 0.1 µM): 0.73% | viability, T/C (second compound 0.00316 µM, first compound 0.316 µM): 1.35% | viability, T/C (second compound 0.00316 µM, first compound 1 µM): 2.03% | viability, T/C (second compound 0.00316 µM, first compound 3.16 µM): 1.42% | viability, T/C (second compound 0.00316 µM, first compound 10 µM): 1.11% | viability, T/C (second compound 0.01 µM, first compound 0.0316 µM): 1.77% | viability, T/C (second compound 0.01 µM, first compound 0.1 µM): 0.94% | viability, T/C (second compound 0.01 µM, first compound 0.316 µM): 1.67% | viability, T/C (second compound 0.01 µM, first compound 1 µM): 1.93% | viability, T/C (second compound 0.01 µM, first compound 3.16 µM): 1.54% | viability, T/C (second compound 0.01 µM, first compound 10 µM): 1.19% | viability, T/C [1]: 1.41% | viability, T/C [2]: 1.13% | viability, T/C [3]: 1.31% | viability, T/C [4]: 1.79% | viability, T/C (second compound 0.0316 µM, first compound 3.16 µM): 1.72% | viability, T/C (second compound 0.0316 µM, first compound 10 µM): 0.97% | viability, T/C [5]: 2.46% | viability, T/C [6]: 1.76% | viability, T/C [7]: 0.8% | viability, T/C [8]: 2.06% | viability, T/C (second compound 0.1 µM, first compound 3.16 µM): 1.88% | viability, T/C (second compound 0.1 µM, first compound 10 µM): 1.11% | viability, T/C [9]: 0.97% | viability, T/C [10]: 1.22% | viability, T/C [11]: 0.89% | viability, T/C [12]: 2.24% | viability, T/C (second compound 0.316 µM, first compound 3.16 µM): 1.05% | viability, T/C (second compound 0.316 µM, first compound 10 µM): 1.06% | viability, T/C [13]: 2.41% | viability, T/C [14]: 1.89% | viability, T/C [15]: 1.45% | viability, T/C [16]: 0.87% | viability, T/C (second compound 1 µM, first compound 3.16 µM): 1.43% | viability, T/C (second compound 1 µM, first compound 10 µM): 1.17%

O=C(c1ccc(F)c(F)c1Nc1ccc(I)cc1F)N1CC(O)([C@@H]2CCCCN2)C1 + C#Cc1c(F)ccc2cc(O)cc(-c3ncc4c(N5CC6CCC(C5)N6)nc(OCC56CCCN5CC(F)C6)nc4c3F)c12
IC50 (second compound 0.0316 µM): > 1000 nM | IC50 (second compound 0.1 µM): > 1000 nM | IC50 (second compound 0.316 µM): > 1000 nM | IC50 (second compound 1 µM): > 1000 nM | IC50 (second compound 3.16 µM): 822 nM | IC50 (second compound 10 µM): 614 nM | viability, T/C (second compound 0.0316 µM, first compound 0.00316 µM): 83.7% | viability, T/C (second compound 0.0316 µM, first compound 0.01 µM): 91.4% | viability, T/C [1]: 84.5% | viability, T/C [2]: 91.7% | viability, T/C [3]: 113% | viability, T/C [4]: 60.2% | viability, T/C (second compound 0.1 µM, first compound 0.00316 µM): 96.5% | viability, T/C (second compound 0.1 µM, first compound 0.01 µM): 91.3% | viability, T/C [5]: 84.4% | viability, T/C [6]: 98.7% | viability, T/C [7]: 114% | viability, T/C [8]: 60% | viability, T/C (second compound 0.316 µM, first compound 0.00316 µM): 95% | viability, T/C (second compound 0.316 µM, first compound 0.01 µM): 91% | viability, T/C [9]: 82.3% | viability, T/C [10]: 95% | viability, T/C [11]: 115% | viability, T/C [12]: 54% | viability, T/C (second compound 1 µM, first compound 0.00316 µM): 90.8% | viability, T/C (second compound 1 µM, first compound 0.01 µM): 92.7% | viability, T/C [13]: 85.4% | viability, T/C [14]: 93.5% | viability, T/C [15]: 116% | viability, T/C [16]: 50.6% | viability, T/C (second compound 3.16 µM, first compound 0.00316 µM): 90.2% | viability, T/C (second compound 3.16 µM, first compound 0.01 µM): 91.2% | viability, T/C (second compound 3.16 µM, first compound 0.0316 µM): 81% | viability, T/C (second compound 3.16 µM, first compound 0.1 µM): 94.5% | viability, T/C (second compound 3.16 µM, first compound 0.316 µM): 118% | viability, T/C (second compound 3.16 µM, first compound 1 µM): 40.7% | viability, T/C (second compound 10 µM, first compound 0.00316 µM): 94% | viability, T/C (second compound 10 µM, first compound 0.01 µM): 94.1% | viability, T/C (second compound 10 µM, first compound 0.0316 µM): 90.2% | viability, T/C (second compound 10 µM, first compound 0.1 µM): 95.4% | viability, T/C (second compound 10 µM, first compound 0.316 µM): 115% | viability, T/C (second compound 10 µM, first compound 1 µM): 14.8%
